Measured values as given in patent US7115658B2 (priority 2002, dated 2006).
Read-outs that look alike come from different tables or passages of the source.

Experiments:
[1] = target: T1, Recombinant HCV polymerase (Hepatitis C virus genotype 1b, UniProt P26663); assay: HCV Polymerase Inhibition Assay; format: biochemical; settings: primer/template-directed transcription, 30 minutes at 30° C.
T1 construct: 2.5 pmoles (0.15 μg) HCV polymerase protein
Procedure, shortened: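 Recombinant genotype 1b polymerase (2.5 pmol) extended biotin-dG12 on poly(rC)300 with 1 μM GTP plus α-32P-GTP, pH 7.2, 30 min at 30 °C, 1% DMSO final; DE-filter-bound product counted. IC50 fitted from triplicate cpm, refitted with enzyme-concentration (30 nM) tight-binding equation when below 200 nM.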

[2] = target: T2, NS5B, the RNA-dependent RNA polymerase (Hepatitis C virus genotype 1b, UniProt P26663); settings: Ishii et al. 1999; cited from earlier work
T2 construct: NS5B, the RNA-dependent RNA polymerase, is also a useful viral target

pestivirus = settings: Baginski et al. 2000; cited from earlier work

T1 sequence (P26663 2420-3010): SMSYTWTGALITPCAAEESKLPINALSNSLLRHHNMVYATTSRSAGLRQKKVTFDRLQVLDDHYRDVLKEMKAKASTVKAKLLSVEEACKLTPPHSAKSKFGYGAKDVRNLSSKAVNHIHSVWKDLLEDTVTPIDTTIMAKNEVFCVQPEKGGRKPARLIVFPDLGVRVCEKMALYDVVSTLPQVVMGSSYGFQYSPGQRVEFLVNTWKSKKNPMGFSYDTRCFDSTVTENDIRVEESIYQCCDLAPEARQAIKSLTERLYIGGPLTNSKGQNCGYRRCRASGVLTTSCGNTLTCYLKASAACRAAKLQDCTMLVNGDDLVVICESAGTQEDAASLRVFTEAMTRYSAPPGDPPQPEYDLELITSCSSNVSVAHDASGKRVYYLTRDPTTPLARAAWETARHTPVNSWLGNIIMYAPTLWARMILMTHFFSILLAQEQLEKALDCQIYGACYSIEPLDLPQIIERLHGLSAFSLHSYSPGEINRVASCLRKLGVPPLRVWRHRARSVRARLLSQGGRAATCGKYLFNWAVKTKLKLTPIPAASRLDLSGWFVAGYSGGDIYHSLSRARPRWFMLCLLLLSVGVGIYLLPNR
T2 sequence (P26663 2420-3010): as above

Row | Structure (SMILES) | melting point [°C] | IC50 ([1]; category symbol) [µM] | further results
1 | Cc1cc(SC2=C(O)CC(C3CCCC3)(C3CCCC3)OC2=O)c(C(C)(C)C)cc1N [Example 179, 3-(4-Amino-2-tert-butyl-5-methyl-phenylsulfanyl)-6,6-dicyclopentyl-4-hydroxy-5,6-dihydro-pyran-2-one] | 163 to 165 |  | IC50 ([1]; read-out: IC50(μM) Category): 15.5 µM
2 | Cc1cc(SC2=C(O)CC(CCc3ccc(O)cc3)(C3CCCCC3)OC2=O)c(C(C)(C)C)cc1N (stereo not shown) [Example 143, 3-(4-Amino-2-tert-butyl-5-methyl-phenylsulfanyl)-6-cyclohexyl-4-hydroxy-6-[2-(4-hydroxy-phenyl)-ethyl]-5,6-dihydro-pyran-2-one] | > 133 | 1 to 10 | 
3 | Nc1ccn([C@@H]2CS[C@H](COP(=O)(O)OP(=O)(O)OP(=O)(O)O)O2)c(=O)n1 [3TC; lamivudine triphosphate] |  |  | Inhibition of RdRp activity [2]: Inhibition of RdRp activity
4 | Cc1cc(SC2=C(O)CC(C3CCCC3)(C3CCCC3)OC2=O)c(C(C)(C)C)cc1OS(=O)(=O)c1cn(C)cn1 [Example 182, 1-methyl-1H-imidazole-4-sulfonic acid 5-tert-butyl-4-(6,6-dicyclopentyl-4-hydroxy-2-oxo-5,6-dihydro-2H-pyran-3-ylsulfanyl)-2-methyl-phenyl ester] | 143 to 145 | 10 to 50 | 
5 | O=C1OC(CCc2ccc(O)cc2)(C2CCCC2)CC(O)=C1N(c1ccccc1)c1ccccc1 (stereo not shown) [Example 161, Cyclopentyl-diphenylamino-hydroxy-[2-(4-hydroxy-phenyl)-ethyl]-5,6-dihydro-pyran-2-one] | 93 to 94 | 1 to 10 | 
6 | Cc1cc(SC2=C(O)CC(C3CCCC3)(C3CCCC3)OC2=O)c(C(C)(C)C)cc1CO [Example 180, 3-(2-tert-butyl-4-hydroxymethyl-5-methyl-phenylsulfanyl)-6,6-dicyclopentyl-4-hydroxy-5,6-dihydro-pyran-2-one] | 158 to 160 |  | IC50 ([1]; read-out: IC50(μM) Category): 15 µM
7 | CCCN(C1=C(O)CC(C2CCCC2)(C2CCCC2)OC1=O)c1cccc(NS(=O)(=O)c2cccs2)c1 [Example 186, Thiophene-2-sulfonic acid {3-[(6,6-dicyclopentyl-4-hydroxy-2-oxo-5,6-dihydro-2H-pyran-3-yl)-propyl-amino]-phenyl}-amide] | 92 to 95 | 10 to 50 | 
8 | CCCN(C1=C(O)C[C@@](CCc2cccc(O)c2)(C2CCCC2)OC1=O)c1ccccc1 [Example 155, 6-(S)-Cyclopentyl-4-hydroxy-6-[2-(3-hydroxy-phenyl)-ethyl]-3-(phenyl-propyl-amino)-5,6-dihydro-pyran-2-one] | 74 to 76 | 1 to 10 | 
9 | Cc1cc(SC2=C(O)CC(C3CCCC3)(C3CCCC3)OC2=O)c(C(C)(C)C)cc1OCCO [Example 181, 3-[2-tert-butyl-4-(2-hydroxy-ethoxy)-5-methyl-phenylsulfanyl]-6,6-dicyclopentyl-4-hydroxy-5,6-dihydro-pyran-2-one] | 100 to 102 |  | IC50 ([1]; read-out: IC50(μM) Category): 36 µM
10 | CCCN(C1=C(O)CC(CCc2ccc(O)cc2)(C2CCCC2)OC1=O)c1ccccc1 (stereo not shown) [Example 159, 6-Cyclopentyl-4-hydroxy-6-[2-(4-hydroxy-phenyl)-ethyl]-3-(phenyl-propyl-amino)-5,6-dihydro-pyran-2-one] | 95 | 1 to 10 | 
11 | CCCN(C1=C(O)CC(C2CCCC2)(C2CCCC2)OC1=O)c1cccc(NS(=O)(=O)c2ccccn2)c1 [Example 184, Pyridine-2-sulfonic acid {3-[(6,6-dicyclopentyl-4-hydroxy-2-oxo-5,6-dihydro-2H-pyran-3-yl)-propyl-amino]-phenyl}-amide] | 105 to 107 | 10 to 50 | 
12 | CCN(C1=C(O)C[C@@](CCc2ccc(O)cc2)(C2CCCC2)OC1=O)c1ccccc1 [Example 158] | 90 to 92 |  | 
13 | Cc1cc(SC2=C(O)CC(CCc3ccc(O)cc3)(C3CCCC3)OC2=O)c(C(C)(C)C)cc1OCCO (stereo not shown) [Example 148, 3-[2-tert-butyl-4-(2-hydroxy-ethoxy)-5-methyl-phenylsulfanyl]-6-cyclopentyl-4-hydroxy-6-[2-(4-hydroxy-phenyl)-ethyl]-5,6-dihydro-pyran-2-one] | 113 to 115 | 1 to 10 | 
14 | Cc1cc(SC2=C(O)CC(CCc3ccc(O)cc3)(C3CCCC3)OC2=O)c(C(C)(C)C)cc1NS(=O)(=O)c1ccccc1 (racemic) [Example 141, (+/−)N-(5-tert-butyl-{6-cyclopentyl-4-hydroxy-6-[2-(4-hydroxy-phenyl)-ethyl]-2-oxo-5,6-dihydro-2H-pyran-3-ylsulfanyl}-2-methyl-phenyl)-benzenesulfonamide] | 125 to 127 | 1 to 10 | 
15 | CCCN(CCC)CCSc1nnc2c(n1)[nH]c1ccccc12 [VP32947, 3-[((2-dipropylamino)ethyl)thio]-5H-1,2,4-triazino[5,6-b]indole] |  |  | inhibitor of pestivirus replication (pestivirus): potent inhibitor
16 | O=C1CC(=O)OC(CCc2ccccc2)(C2CCCC2)C1 (stereo not shown) [Example 35, 6-Cyclopentyl-6-phenethyl-dihydro-pyran-2,4-dione] | 96 to 99 | 10 to 50 | 
17 | CCNS(=O)(=O)Oc1cc(C(C)(C)C)c(SC2=C(O)CC(CCc3cccc(O)c3)(C3CCCC3)OC2=O)cc1C (stereo not shown) [Example 149, Ethyl-sulfamic acid 5-tert-butyl-4-{6-cyclopentyl-4-hydroxy-6-[2-(3-hydroxy-phenyl)-ethyl]-2-oxo-5,6-dihydro-2H-pyran-3-ylsulfanyl}-2-methyl-phenyl ester] | 69 to 72 | > 50 | 
18 | CC(=O)Nc1cc(C(C)(C)C)c(SC2=C(O)CC(CCc3ccc(O)cc3)(C3CCCCC3)OC2=O)cc1C (stereo not shown) [Example 142, N-(5-tert-butyl4-{6-cyclohexyl-4-hydroxy-6-[2-(4-hydroxy-phenyl)-ethyl]-2-oxo-5,6-dihydro-2H-pyran-3-ylsulfanyl)-2-methyl-phenyl)-acetamide] | > 154 | > 50 | 
19 | CCCN(C1=C(O)CC(C2CCCC2)(C2CCCC2)OC1=O)c1cccc(N)c1 [Example 187, 3-[(3-Amino-phenyl)-propyl-amino]-6,6-dicyclopentyl-4-hydroxy-5,6-dihydro-pyran-2-one] | 173 to 175 | > 50 | 
20 | Cc1cc(SC2=C(O)CC(CCc3ccc(O)cc3)(C3CCCC3)OC2=O)c(C(C)(C)C)cc1OS(=O)(=O)N1CCN(C)CC1 (stereo not shown) [Example 147] | 163 to 165 | 1 to 10 | 
21 | O=C(O)CP(=O)(O)O [phosphonoacetic acid, reference compound] |  |  | Inhibition of RdRp activity [2]: Inhibition of RdRp activity
22 | CCN(C1=C(O)CC(CCc2ccc(O)cc2)(C2CCCC2)OC1=O)c1ccccc1 (stereo not shown) [Example 160, Cyclopentyl-(ethyl-phenyl-amino)-hydroxy-[2-(4-hydroxy-phenyl)-ethyl]-5,6-dihydro-pyran-2-one] | 83 to 85 | 1 to 10 | 
23 | O=C1C=C(O)CC(CCc2cc3ccccc3o2)(C2CCCC2)O1 (stereo not shown) [Example 46, 6-[2-(1-benzofuran-2-yl)ethyl]-6-cyclopentyl-4-hydroxy-5,6-dihydro-2H-pyran-2-one] |  | 10 to 50 | 
24 | CC(=O)Nc1cc(C(C)(C)C)c(SC2=C(O)CC(CCc3ccc(O)cc3)(C3CCCC3)OC2=O)cc1C (racemic) [Example 140, (+/−)N-(5-tert-butyl-4-{6-cyclopentyl-4-hydroxy-6-[2-(4-hydroxy-phenyl)-ethyl]-2-oxo-5,6-dihydro-2H-pyran-3-ylsulfanyl}-2-methyl-phenyl)-acetamide] |  | 1 to 10 | 
25 | CC(=O)c1ccc(CCC2(C3CCCC3)CC(O)=CC(=O)O2)cc1C (stereo not shown) [Example 17, 6-[2-(4-Acetyl-3-methyl-phenyl)-ethyl]-6cyclopentyl-4-hydroxy-5,6-dihydro-pyran-2-one] |  | 1 to 10 | 
26 | Cc1cc(CCC2(C3CCCC3)CC(O)=CC(=O)O2)ccc1C1(C)OCCO1 (stereo not shown) [Example 18, 6-Cyclopentyl-4-hydroxy-6-{2-[3-methyl-4-(2-methyl-1,3-dioxolan-2-yl)-phenyl]-ethyl}-5,6-dihydro-pyran-2-one] |  | 1 to 10 | 
27 | CC1(c2ccc(CCC3(C4CCCC4)CC(=O)CC(=O)O3)cc2Cl)OCCO1 (stereo not shown) [Example 62, 6-{2-[3-Chloro-4-(2-methyl-[1,3]dioxolan-2-yl)-phenyl]-ethyl}-6-cyclopentyl-dihydro-pyran-2,4-dione] |  | < 1 | 
28 | COc1ccc(CCC2(C3CCCC3)CC(=O)C(C(=O)Cc3ccccc3)C(=O)O2)c(OC)c1 (stereo not shown) [Example 169, 6-Cyclopentyl-6-[2-(2,4-dimethoxy-phenyl)-ethyl]-3-phenylacetyl-dihydro-pyran-2,4-dione] |  | 10 to 50 | 
